Columns and labels:
Replicase polyprotein 1a = Replicase polyprotein 1a (Severe acute respiratory syndrome coronavirus, UniProt P0C6U8); assay: SARS-CoV PLpro Inhibition Assay; conditions: pH 8
Method: (§1) Reactions were performed in a total volume of […], which contained thefollowing components: 20mM Tris-buffer, pH 8.0, 10mM DTT, […], 2% DMSO and varying concentrations of inhibitor ([…]). Assays were initiated with the addition of PLpro to produce a final enzyme concentration of 60 nM.

[1] = target: Replicase polyprotein 1a/Z-RLRGG-AMC (Severe acute respiratory syndrome coronavirus, UniProt P0C6U8); assay: SARS-CoV PLpro Inhibition Assay; conditions: pH 8
Method: as §1

SMILES | IC50 (Replicase polyprotein 1a) [µM] | Ki (Replicase polyprotein 1a) [µM] | Ki [1] [µM]
O=c1ccc2ccc3occc3c2o1 [2H-furo[2,3-h]chromen-2-one] | > 150 |  | 
COc1cc(O)c(C(=O)/C=C/c2ccc(O)cc2)cc1CC=C(C)C [4'-O-methylbavachalcone (4)] | 10.1 | 4.6 | 
O=c1ccc2cc3ccoc3cc2o1 [7H-furo[3,2-g]chromen-7-one] | > 150 |  | 
COc1cc2c(cc1CC=C(C)C)C(=O)CC(c1ccc(O)cc1)O2 (stereo unspecified) [Bavachinin (1)] | 38.4 | 18.4 | 
CC(C)=CCC/C(C)=C\Cc1cc(-c2coc3cc(O)ccc3c2=O)ccc1O [Corylifol A (6)] | 32.3 | 11.4 | 
CC(C)=CCc1c(O)ccc(C(=O)/C=C/c2ccc(O)cc2)c1O [Isobacachalcone] | 7.3 | 4.9 | 9.1
CC(C)=CCc1cc(-c2coc3cc(O)ccc3c2=O)ccc1O [Neobavaisoflavone (2)] | 18.3 | 9.4 | 
CC(C)=CCc1cc2c(cc1O)oc(=O)c1c3ccc(O)cc3oc21 [Psoralidin (5)] | 4.2 | 1.7 | 4.2
